Earlier results, collected in patent publication US10792281B2 (priority 2014, dated 2020).
Read-outs that look alike come from different tables or passages of the source.

Assays:
[1] = in vivo
[2] = human, in vivo
[3] = system: nuclear factor kappa-B (NF-kB) and activator protein-1 (AP-1) activity
[4] = not given; remark: listed apart in the source

Compound: CC(C)(O)c1ccccc1CC[C@@H](SCC1(CC(=O)O)CC1)c1cccc(/C=C/c2ccc3ccc(Cl)cc3n2)c1 [montelukast]
- time to peak plasma concentration [1]: 3 to 4 h
- effect of food on oral bioavailability and Cmax ([1]; po): not affected by a standard meal
- AUC range ([1]; po, 10 mg): 1521 to 4595 ng/h/mL
- mean AUC ([1]; po, 10 mg): 2689 ng/h/mL
- doses without clinically relevant side effects [2]: up to 200 mg/day
- drug interactions ([2]; po): no drug interactions

Compound: CN(C)CCOC(c1ccccc1)c1ccccc1 [Diphenhydramine, diphenhydramine]
- effect on AP-1 and NF-kB activity / RANTES production [3]: ineffective

Compound: Clc1ccc2c(c1)CCc1cccnc1C2=C1CCNCC1 [Desloratadine, desloratadine]
- half-life (in vivo): 27 h
- half-life (slow metabolizers): > 50 h

Compound: O=C(O)COCCN1CCN([C@H](c2ccccc2)c2ccc(Cl)cc2)CC1 [levocetirizine]
- HRV-induced ICAM-1, cytokine expression, and viral replication (human rhinovirus (HRV); airway epithelial cells from both the nose and lung): inhibit
- decrease of viral titers (human rhinovirus (HRV); in vitro, e.g. rhinovirus): 2 log
- peak concentration ([4]; repeated 5 mg once daily oral dose): 308 ng/mL
- peak concentration ([4]; single 5 mg oral dose): 270 ng/mL
- doses that can be safely administered [2]: up to 30 mg/day

Compound: CN(c1nccc(=O)[nH]1)C1CCN(c2nc3ccccc3n2Cc2ccc(F)cc2)CC1 [mizolastine]
- bioavailability (in vivo): high
